# Data published in patent US8614327B2 (Vertex Pharmaceuticals Incorporated, priority 2004, dated 2013).
# pEC50: −log10 of the molar value.
# Biological target: T1, ΔF508-CFTR (Homo sapiens, UniProt P13569, DEL508-508)
# T1 construct: expressed in transfected cells
# Test: Membrane potential optical (FRET/VIPR) assay, identification of potentiator compounds
# Format: cell-based
# Settings: Table 3, assay not given; for % Activity: relative efficacy
# Procedure, shortened: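 Double-addition potentiator screen: compound delivered in gluconate-substituted Cl^--free medium, membrane potential followed via CC2-DMPE/DiSBAC2(3) FRET on VIPR. Cells were ΔF508-CFTR-expressing NIH3T3 mouse fibroblasts, held 2 h at 37° C. then 24 h at 27° C. before assay.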
# T1 sequence (P13569 with tags, fused parts or gaps DEL508-508): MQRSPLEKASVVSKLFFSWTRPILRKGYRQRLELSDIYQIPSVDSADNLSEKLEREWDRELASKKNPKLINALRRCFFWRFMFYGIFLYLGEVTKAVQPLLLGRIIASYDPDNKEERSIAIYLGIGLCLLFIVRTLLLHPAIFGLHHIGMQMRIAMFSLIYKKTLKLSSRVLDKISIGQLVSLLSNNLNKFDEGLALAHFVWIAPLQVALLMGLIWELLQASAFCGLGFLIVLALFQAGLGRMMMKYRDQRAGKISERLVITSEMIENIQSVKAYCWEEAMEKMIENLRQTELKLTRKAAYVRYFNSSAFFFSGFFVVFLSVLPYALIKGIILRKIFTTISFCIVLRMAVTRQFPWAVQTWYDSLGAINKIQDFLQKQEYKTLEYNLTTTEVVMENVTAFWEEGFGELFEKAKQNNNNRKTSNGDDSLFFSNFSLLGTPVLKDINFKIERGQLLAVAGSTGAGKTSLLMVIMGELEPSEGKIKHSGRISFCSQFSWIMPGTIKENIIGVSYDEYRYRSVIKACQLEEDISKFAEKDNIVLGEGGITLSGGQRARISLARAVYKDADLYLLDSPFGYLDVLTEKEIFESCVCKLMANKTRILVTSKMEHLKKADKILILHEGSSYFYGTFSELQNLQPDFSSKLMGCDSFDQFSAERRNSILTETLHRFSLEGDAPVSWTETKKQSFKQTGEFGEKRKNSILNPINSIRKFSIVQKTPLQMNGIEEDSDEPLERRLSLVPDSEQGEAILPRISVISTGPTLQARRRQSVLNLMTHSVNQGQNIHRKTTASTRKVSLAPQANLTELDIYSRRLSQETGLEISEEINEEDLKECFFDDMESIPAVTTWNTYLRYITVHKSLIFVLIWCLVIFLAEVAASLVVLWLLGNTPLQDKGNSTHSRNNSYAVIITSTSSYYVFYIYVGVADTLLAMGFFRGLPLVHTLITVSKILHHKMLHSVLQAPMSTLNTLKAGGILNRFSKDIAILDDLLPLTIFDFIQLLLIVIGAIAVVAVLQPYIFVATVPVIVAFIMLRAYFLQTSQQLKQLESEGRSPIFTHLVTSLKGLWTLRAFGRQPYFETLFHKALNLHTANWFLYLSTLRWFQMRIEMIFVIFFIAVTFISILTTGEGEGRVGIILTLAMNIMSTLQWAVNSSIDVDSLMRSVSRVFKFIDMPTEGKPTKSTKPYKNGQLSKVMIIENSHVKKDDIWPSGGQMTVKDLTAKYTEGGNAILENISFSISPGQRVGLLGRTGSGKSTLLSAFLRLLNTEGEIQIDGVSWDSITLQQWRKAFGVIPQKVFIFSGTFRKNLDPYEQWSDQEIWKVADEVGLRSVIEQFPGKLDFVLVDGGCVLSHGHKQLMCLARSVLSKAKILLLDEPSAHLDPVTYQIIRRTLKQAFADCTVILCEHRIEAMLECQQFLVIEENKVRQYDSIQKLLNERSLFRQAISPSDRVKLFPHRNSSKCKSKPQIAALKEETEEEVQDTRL
pEC50,% Activity,Structure (SMILES)
> 5.00,++ (between 25% to 100%),"CCc1cc2cc[nH]c2cc1NC(=O)c1c[nH]c2cccc(O)c2c1=O [Compound 591, N-(5-ethyl-1H-indol-6-yl)-5-hydroxy-4-oxo-1H-quinoline-3-carboxamide]"
> 5.00,++ (between 25% to 100%),"CCOC(=O)[C@H]1CCCN(c2ccc(NC(=O)c3c[nH]c4ccccc4c3=O)c(C(F)(F)F)c2)C1 [Compound 660, (S)-ethyl 1-(4-(4-oxo-1,4-dihydroquinoline-3-carboxamido)-3-(trifluoromethyl)phenyl)piperidine-3-carboxylate]"
> 5.00,++ (between 25% to 100%),"CC(C)(C)c1ccc(NC(=O)c2c[nH]c3ccccc3c2=O)cc1N [Compound 271, N-(3-amino-4-tert-butyl-phenyl)-4-oxo-1H-quinoline-3-carboxamide]"
> 5.00,++ (between 25% to 100%),"O=C(Nc1ccccc1-c1csc2ccccc12)c1c[nH]c2ccccc2c1=O [Compound 417, N-(2-(benzo[b]thiophen-3-yl)phenyl)-1,4-dihydro-4-oxoquinoline-3-carboxamide]"
4.60 to 5.00,+ (<25%),"CCOc1cccc2c(=O)c(C(=O)Nc3cc(O)c(C(C)(C)C)cc3F)c[nH]c12 [Compound 526, 8-ethoxy-N-(2-fluoro-5-hydroxy-4-tert-butyl-phenyl)-4-oxo-1H-quinoline-3-carboxamide]"
4.60 to 5.00,++ (between 25% to 100%),"CCOc1ccc(OCC)c(NC(=O)c2c[nH]c3ccccc3c2=O)c1 [Compound 264, N-(2,5-diethoxyphenyl)-4-oxo-1H-quinoline-3-carboxamide]"
> 5.00,++ (between 25% to 100%),"Cc1cccc2[nH]cc(C(=O)Nc3ccc(N4[C@H](C)CC[C@H]4C)cc3C(F)(F)F)c(=O)c12 [Compound 539, N-(4-((2R,5R)-2,5-dimethylpyrrolidin-1-yl)-2-(trifluoromethyl)phenyl)-5-methyl-4-oxo-1,4-dihydroquinoline-3-carboxamide]"
> 5.00,++ (between 25% to 100%),"CC(C)c1ccc(NC(=O)c2c[nH]c3ccccc3c2=O)cc1N [Compound 69, N-(3-amino-4-isopropyl-phenyl)-4-oxo-1H-quinoline-3-carboxamide]"
> 5.00,++ (between 25% to 100%),"CCOc1ccc(-c2ccccc2NC(=O)c2c[nH]c3ccccc3c2=O)cc1 [Compound 348, N-[2-(4-ethoxyphenyl)phenyl]-4-oxo-1H-quinoline-3-carboxamide]"
4.22 to 4.60,+ (<25%),"O=C(Nc1ccc2c(c1)OCO2)c1c[nH]c2ccccc2c1=O [Compound 437, N-benzo[1,3]dioxol-5-yl-4-oxo-1H-quinoline-3-carboxamide]"
> 5.00,++ (between 25% to 100%),"Cc1cc(OC(F)(F)F)ccc1NC(=O)c1c[nH]c2ccccc2c1=O [Compound 538, N-[2-methyl-4-(trifluoromethoxy)phenyl]-4-oxo-1H-quinoline-3-carboxamide]"
> 5.00,++ (between 25% to 100%),"Cc1ccc(C)n1-c1ccccc1NC(=O)c1c[nH]c2ccccc2c1=O [Compound 297, N-[2-(2,5-dimethyl-1H-pyrrol-1-yl)phenyl]-4-oxo-1H-quinoline-3-carboxamide]"
4.60 to 5.00,++ (between 25% to 100%),"Cc1nc2cc(NC(=O)c3c[nH]c4ccccc4c3=O)ccc2s1 [Compound 44, N-(2-methylbenzothiazol-5-yl)-4-oxo-1H-quinoline-3-carboxamide]"
> 5.00,++ (between 25% to 100%),"CCOC(=O)Cc1c[nH]c2cc(NC(=O)c3c[nH]c4ccccc4c3=O)ccc12 [Compound 207, 2-[6-[(4-oxo-1H-quinolin-3-yl)carbonylamino]-1H-indol-3-yl]acetic acid ethyl ester]"
–,++ (between 25% to 100%),"CCc1ccc(N)cc1NC(=O)c1c[nH]c2ccccc2c1=O [Compound 282, N-(5-amino-2-ethyl-phenyl)-4-oxo-1H-quinoline-3-carboxamide]"
4.22 to 4.60,+ (<25%),"CCOc1cc(NC(=O)c2c[nH]c3ccccc3c2=O)c(OCC)cc1NC(=O)c1ccccc1 [Compound 7, N-(4-benzoylamino-2,5-diethoxy-phenyl)-4-oxo-1H-quinoline-3-carboxamide]"
4.22 to 4.60,+ (<25%),"O=C(Nc1ccc2oc(-c3ccccc3)nc2c1)c1c[nH]c2ccccc2c1=O [Compound 376, 4-oxo-N-(2-phenylbenzooxazol-5-yl)-1H-quinoline-3-carboxamide]"

pEC50,% Activity,Structure (SMILES)
> 5.00,++ (between 25% to 100%),"CC(C)(C)c1cc2cc[nH]c2cc1NC(=O)c1c[nH]c2cccc(O)c2c1=O [Compound 500, 5-hydroxy-4-oxo-N-(5-tert-butyl-1H-indol-6-yl)-1H-quinoline-3-carboxamide]"
> 5.00,++ (between 25% to 100%),"COC(=O)[C@@H]1[C@H]2C[C@H]2CN1c1ccc(NC(=O)c2c[nH]c3ccccc3c2=O)c(C(F)(F)F)c1 [Compound 531, (1S,2S,5R)-methyl 3-(4-(4-oxo-1,4-dihydroquinoline-3-carboxamido)-3-(trifluoromethyl)phenyl)-3-azabicyclo[3.1.0]hexane-2-carboxylate]"
> 5.00,++ (between 25% to 100%),"O=C(Nc1cc(O)c(C2CCCC2)cc1C#CCO)c1c[nH]c2ccccc2c1=O [Compound 512, N-[4-cyclopentyl-5-hydroxy-2-(3-hydroxyprop-1-ynyl)phenyl]-4-oxo-1H-quinoline-3-carboxamide]"
> 5.00,++ (between 25% to 100%),"O=C(Nc1ccccc1-c1ccc(OC(F)(F)F)cc1)c1c[nH]c2ccccc2c1=O [Compound 388, 4-oxo-N-[2-[4-(trifluoromethoxy)phenyl]phenyl]-1H-quinoline-3-carboxamide]"
4.22 to 4.60,+ (<25%),"O=C(Nc1ccc(C(F)(F)F)nc1)c1c[nH]c2ccccc2c1=O [Compound 197, 4-oxo-N-[6-(trifluoromethyl)-3-pyridyl]-1H-quinoline-3-carboxamide]"
> 5.00,++ (between 25% to 100%),"COC(=O)c1ccc(-c2ccccc2NC(=O)c2c[nH]c3ccccc3c2=O)cc1 [Compound 166, 4-[2-[(4-oxo-1H-quinolin-3-yl)carbonylamino]phenyl]benzoic acid methyl ester]"
> 5.00,++ (between 25% to 100%),"COC(=O)Nc1cc(NC(=O)c2c[nH]c3ccccc3c2=O)ccc1C(C)(C)C [Compound 14, [5-[(4-oxo-1H-quinolin-3-yl)carbonylamino]-2-tert-butyl-phenyl]aminoformic acid methyl ester]"
> 5.00,+++ (>100%),"CC1(c2cc(F)c(NC(=O)c3c[nH]c4cccc(C(F)(F)F)c4c3=O)cc2O)CCCCC1 [Compound 706, N-[2-fluoro-5-hydroxy-4-(1-methylcyclohexyl)-phenyl]-4-oxo-5-(trifluoromethyl)-1H-quinoline-3-carboxamide]"
> 5.00,++ (between 25% to 100%),"O=C(Nc1ccc2cc[nH]c2c1)c1cnc2ccc(F)cc2c1O [Compound 345, 6-fluoro-4-hydroxy-N-(1H-indol-6-yl)quinoline-3-carboxamide]"
> 5.00,++ (between 25% to 100%),"O=C(Nc1ccccc1C(O)c1ccccc1)c1c[nH]c2ccccc2c1=O (centres unmarked) [Compound 228, N-[2-(hydroxy-phenyl-methyl)phenyl]-4-oxo-1H-quinoline-3-carboxamide]"
> 5.00,++ (between 25% to 100%),"O=C(Nc1ccc(Cl)cc1)c1c[nH]c2ccccc2c1=O [Compound 405, N-(4-chlorophenyl)-4-oxo-1H-quinoline-3-carboxamide]"
> 5.00,++ (between 25% to 100%),"CC(C)c1ccc(NC(=O)c2c[nH]c3cc(F)c(F)cc3c2=O)c(C(F)(F)F)c1 [Compound 589, 6,7-difluoro-N-[4-isopropyl-2-(trifluoromethyl)phenyl]-4-oxo-1H-quinoline-3-carboxamide]"
> 5.00,++ (between 25% to 100%),"CC(C)c1ccc(-c2cc3cc[nH]c3cc2NC(=O)c2c[nH]c3ccccc3c2=O)cc1 [Compound 342, N-[5-(4-isopropylphenyl)-1H-indol-6-yl]-4-oxo-1H-quinoline-3-carboxamide]"
–,++ (between 25% to 100%),"Cc1cc(-c2ccccc2NC(=O)c2c[nH]c3ccccc3c2=O)ccc1F [Compound 79, N-[2-(4-fluoro-3-methyl-phenyl)phenyl]-4-oxo-1H-quinoline-3-carboxamide]"
> 5.00,++ (between 25% to 100%),"COc1ccc2c(=O)c(C(=O)Nc3cc(O)c(C(C)(C)C)cc3C(C)(C)C)c[nH]c2c1 [Compound 583, N-(5-hydroxy-2,4-ditert-butyl-phenyl)-7-methoxy-4-oxo-1H-quinoline-3-carboxamide]"
> 5.00,++ (between 25% to 100%),"O=C(Nc1cccc(Cl)c1)c1c[nH]c2ccccc2c1=O [Compound 370, N-(3-chlorophenyl)-4-oxo-1H-quinoline-3-carboxamide]"

Structure (SMILES),pEC50,% Activity
"O=C(Nc1ccc2ccccc2c1)c1c[nH]c2ccccc2c1=O [Compound 481, N-(2-naphthyl)-4-oxo-1H-quinoline-3-carboxamide]",> 5.00,++ (between 25% to 100%)
"Cc1cccc2[nH]cc(C(=O)Nc3ccc(OC4CCCC4)cc3C(F)(F)F)c(=O)c12 [Compound 595, N-[4-cyclopentoxy-2-(trifluoromethyl)phenyl]-5-methyl-4-oxo-1H-quinoline-3-carboxamide]",> 5.00,++ (between 25% to 100%)
